Assay: solubility in hot methanol
Format: physicochemical
Conditions: 3 volumes

- solubility in hot methanol: excellent solubility
SMILES: CC1O[C@@H](OC2C(O)[C@@H](O)C(CO)O[C@H]2O[C@@H]2C(CO)OC(O)C(O)C2O)C(OCc2ccccc2)C(OCc2ccccc2)[C@@H]1OCc1ccccc1 (stereo partly drawn) [anhydrous derivative, O-(2,3,4-tri-O-benzyl-α-L-fucopyranosyl)-(1→2)-O-β-D-galactopyranosyl-(1→4)-D-glucose]
